Laboratory results as given in US20250114420A1, “ANTIMICROBIAL NATURAL COMPOSITIONS” (BIO-ACTIVES SYNERGIO LTD, priority 2022, published 2025).

What was measured:
A. brasilliensis (AB) = test: Agar dilution test; assay type: cell-based, Aspergillus brasiliensis; set-up: key: (+) indicates growth; (+/−) indicates partial growth; (−) indicates no growth; conditions: Table 4, 24-48 hours
Protocol: (§1) An agar dilution test was carried out for various combinations of saponin extract (Sapindus mukorossi) and Styrax extract (Sumatra benzoin), with maltol extracted from wheat as an additional plant extract, for evaluating the synergistic antimicrobial effect therebetween.
(§2) The agar dilution test was carried out as follows: TSA (tryptic soy agar) or SDA (Sabouraud dextrose agar) media were melted at 99±2° C. and kept warm until seeding (43±2° C.). Into a quota of the growth medium, the maltol and extract were added and stirred. 5 ml of the mixture was poured into each test plate and left to cool and solidify. The plates were then inoculated by defined amounts of test microorganisms (E. coli, S. aureus and P. aeruginosa used on TSA plates, C. albicans and A. brasilliensis used on the SDA plates). The plates were incubated at 25-35° C. for 24-48 hours and then assessed for microorganisms' growth.
(§3) The test results for the combinations of saponin and Styrax extracts with maltol are detailed in Table 4, while the results for the compositions of saponin and Styrax extracts with maltol and citric acid are shown in Table 5. (+) indicates growth, (+/−) indicates partial growth, while (−) indicates no growth. Positive control was obtained by utilizing a commercial preservative. […]

C. albicans (CA) = test: Agar dilution test; assay type: cell-based, Candida albicans; set-up: key: (+) indicates growth; (+/−) indicates partial growth; (−) indicates no growth; conditions: Table 4, 24-48 hours
Protocol: as §1, §2, §3

P. aeruginosa (PA) = test: Agar dilution test; assay type: cell-based, Pseudomonas aeruginosa; set-up: key: (+) indicates growth; (+/−) indicates partial growth; (−) indicates no growth; conditions: Table 4, 24-48 hours
Protocol: as §1, §2, §3

E. coli (EC) = test: Agar dilution test; assay type: cell-based, Escherichia coli; set-up: key: (+) indicates growth; (+/−) indicates partial growth; (−) indicates no growth; conditions: Table 4, 24-48 hours
Protocol: as §1, §2, §3

S. aureus (SA) = test: Agar dilution test; assay type: cell-based, Staphylococcus aureus; set-up: key: (+) indicates growth; (+/−) indicates partial growth; (−) indicates no growth; conditions: Table 4, 24-48 hours
Protocol: as §1, §2, §3

[1] = tested on: mixture of S. aureus, S. capitis, S. epidermis and S. hominis; test: Agar plates of cream samples inoculated with skin microbiota mixture (FIGS. 1A-1D); assay type: cell-based; conditions: cream sample; after 7 hours of incubation
Protocol: FIGS. […] The upper panel of each agar plate was plated with mixture of representative microorganisms to provide a control to each of the experiments.
The mixture of microorganisms represents the natural skin microbiota. […] In comparison, FIGS. 1C and 1D show samples of the cream with the bottom half of the sample containing the compositions 5A and 5B, respectively, and without preservative in the upper half.

SMILES	Agar dilution test result (growth), AB (A. brasilliensis (AB); Teat 2 (duplicate))	Agar dilution test result (growth), AB (A. brasilliensis (AB); Test 1)	Agar dilution test result (growth), CA (C. albicans (CA); Teat 2 (duplicate))	Agar dilution test result (growth), CA (C. albicans (CA); Test 1)	Agar dilution test result (growth), PA (P. aeruginosa (PA); Teat 2 (duplicate))	Agar dilution test result (growth), PA (P. aeruginosa (PA); Test 1)	Agar dilution test result (growth), EC (E. coli (EC); Teat 2 (duplicate))	Agar dilution test result (growth), EC (E. coli (EC); Test 1)	Agar dilution test result (growth), SA (S. aureus (SA); Teat 2 (duplicate))	Agar dilution test result (growth), SA (S. aureus (SA); Test 1)	effect on natural skin microbiota on agar plate (FIGS. 1A-1D) [1]
Cc1occc(=O)c1O [ML 0.1%, maltol]	+/−	+/−	−	−	−	−	+	+	−	−	
Cc1occc(=O)c1O [ML 0.02%, maltol]	+	+	+	+	+	+	+	+	+	+	
Cc1occc(=O)c1O [ML 0.2%, maltol]	−	−	−	−	−	−	−	−	−	−	
Cc1occc(=O)c1O [ML 0.04%, maltol]	+	+	+/−	+/−	+	+	+	+	+/−	+/−	
Cc1occc(=O)c1O [ML 0.05%, maltol]	+	+	+	+	+/−	+/−	+	+	+/−	+/−	
Cc1occc(=O)c1O [ML 0.08%, maltol]	+/−	+/−	−	−	−	−	+/−	+/−	+	+	
CCCCC(CC)COCC(O)CO (stereo not shown) [commercial synthetic preservative, ethylhexyl glycerin]											almost complete elimination of the microbiota
